Source: PMC4154125, “Crystal structures of highly specific phosphinic tripeptide enantiomers in complex with the angiotensin‐I converting enzyme” (The Febs Journal, 2013)
pIC50, pKi: −log10 of the molar value.

What was measured:
AnCE [1] = target: T1, AnCE (Drosophila melanogaster, UniProt Q10714); assay: inhibition of hippuryl-histidyl-leucine hydrolysis, Ki from IC50 (Cheng-Prusoff); format: biochemical; conditions: read-out: apparent Ki
T1 construct: recombinant single-domain enzyme, secreted from Pichia pastoris, purified
T1 sequence (Q10714 18-615): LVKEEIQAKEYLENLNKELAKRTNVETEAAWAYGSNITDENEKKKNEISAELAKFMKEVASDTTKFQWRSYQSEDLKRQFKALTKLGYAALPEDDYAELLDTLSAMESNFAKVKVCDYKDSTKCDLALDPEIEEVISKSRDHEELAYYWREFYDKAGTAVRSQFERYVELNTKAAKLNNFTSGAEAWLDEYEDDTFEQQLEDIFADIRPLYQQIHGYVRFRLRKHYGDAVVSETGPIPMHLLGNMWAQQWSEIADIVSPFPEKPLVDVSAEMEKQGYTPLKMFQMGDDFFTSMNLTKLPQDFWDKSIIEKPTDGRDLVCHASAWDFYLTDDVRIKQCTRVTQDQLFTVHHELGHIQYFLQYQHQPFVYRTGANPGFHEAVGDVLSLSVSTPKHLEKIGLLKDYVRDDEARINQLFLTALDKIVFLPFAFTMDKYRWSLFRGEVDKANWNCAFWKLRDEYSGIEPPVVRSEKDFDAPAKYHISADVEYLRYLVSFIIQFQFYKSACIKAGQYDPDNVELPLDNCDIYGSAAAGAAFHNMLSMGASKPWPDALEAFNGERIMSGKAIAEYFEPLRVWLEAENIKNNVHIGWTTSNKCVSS

AnCE [2] = target: T1, AnCE; assay: inhibition of hippuryl-histidyl-leucine hydrolysis; format: biochemical
C-ACE = target: T2, C-ACE (Homo sapiens, UniProt P12821); assay: X-ray crystal structure, […] Å; format: binding; conditions: co-crystal, pH 4.0 reservoir; active site, zinc coordination
T2 construct: tACEΔ36-g13, truncated underglycosylated variant of testis ACE (C-domain), CHO cells, purified
T2 sequence (P12821 642-1230): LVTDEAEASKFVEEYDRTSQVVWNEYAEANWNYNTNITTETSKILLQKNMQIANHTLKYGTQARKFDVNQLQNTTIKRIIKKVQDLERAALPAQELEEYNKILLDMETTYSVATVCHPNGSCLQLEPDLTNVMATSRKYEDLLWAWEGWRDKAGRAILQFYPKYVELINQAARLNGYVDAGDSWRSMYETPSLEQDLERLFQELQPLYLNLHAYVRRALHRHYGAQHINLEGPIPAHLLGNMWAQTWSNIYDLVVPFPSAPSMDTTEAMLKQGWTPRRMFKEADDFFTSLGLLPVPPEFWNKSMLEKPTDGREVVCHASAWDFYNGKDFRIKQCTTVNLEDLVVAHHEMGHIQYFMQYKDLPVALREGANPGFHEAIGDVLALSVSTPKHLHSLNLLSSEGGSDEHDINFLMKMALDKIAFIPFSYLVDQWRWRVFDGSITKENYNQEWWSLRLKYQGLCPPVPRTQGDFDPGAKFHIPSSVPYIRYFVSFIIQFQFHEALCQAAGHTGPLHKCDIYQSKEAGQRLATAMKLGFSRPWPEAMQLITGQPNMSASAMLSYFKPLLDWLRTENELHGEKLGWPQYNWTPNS

O=C(N[C@@H](Cc1ccccc1)P(=O)(O)C[C@@H](Cc1cc(-c2ccccc2)no1)C(=O)N[C@@H](Cc1ccc(O)cc1)C(=O)O)OCc1ccccc1 [FI, (2S)‐2‐({3‐[hydroxyl (2‐phenyl‐(1R)‐1‐{[(benzyloxy)carbonyl]‐amino}ethyl)phosphinyl]‐2‐[(3‐phenylisoxazol‐5‐yl)methyl]‐1‐oxo‐propyl}amino)‐3‐(4‐hydroxy‐phenyl) propanoic acid]
pKi (AnCE [1]): 7.62 | pIC50 (AnCE [2]): 7.36 | X-ray crystal structure, 1.85 Å (C-ACE): One bound inhibitor molecule was modelled in the catalytic site of C‐ACE

O=C(N[C@@H](Cc1ccccc1)P(=O)(O)C[C@H](Cc1cc(-c2ccccc2)no1)C(=O)N[C@@H](Cc1ccc(O)cc1)C(=O)O)OCc1ccccc1 [FII, (2S)‐2‐({3‐[hydroxyl (2‐phenyl‐(1R)‐1‐{[(benzyloxy)carbonyl]‐amino}ethyl)phosphinyl]‐2‐[(3‐phenylisoxazol‐5‐yl)methyl]‐1‐oxo‐propyl}amino)‐3‐(4‐hydroxy‐phenyl) propanoic acid]
pKi (AnCE [1]): 6.92 | pIC50 (AnCE [2]): 6.68
